Experimental data reported in paper PMC10615877 (Chemistry (Weinheim an der Bergstrasse, Germany), 2023).
Like-named read-outs stand apart in the source and are kept apart here.

Key:
[1] = tested on: thioredoxin reductase (TrxR); settings: for inhibition: 100 µM
MDA-MB-468 cell line = settings: TNBC MDA-MB-468 cell line; cited from earlier work
MDA-MB-157 cells [2] = settings: read-out: IC50 2D MDA-MB-157; cited from earlier work
plasmid pBR322 DNA = assay: Electrophoresis mobility shift assay with plasmid DNA; settings: no reducing agent, metal/DNAbp 0.2-1.0, 20 h, 37 °C
SKOV-3 = assay: Presto Blue cell viability assay, SKOV-3; assay type: cell-based, human; settings: read-out: IC50 SKOV-3 (ovarian), 72 hours incubation
T24 = assay: Presto Blue cell viability assay, T24; assay type: cell-based, human; settings: read-out: IC50 T24 (bladder), 72 hours incubation
MDA-MB-231 = assay: Presto Blue cell viability assay, MDA-MB-231; assay type: cell-based, human; settings: read-out: IC50 MDA-MB-231 (breast), 72 hours incubation
IMR90 = assay: Presto Blue cell viability assay, non-cancerous lung fibroblasts IMR90; assay type: cell-based, human; settings: read-out: IC50 IMR90 (lung fibroblasts), 72 hours incubation
Caki-1 = assay: Presto Blue cell viability assay, Caki-1; assay type: cell-based, human; settings: read-out: IC50 Caki-1 (renal), 72 hours incubation
A2780 = assay: Presto Blue cell viability assay, A2780; assay type: cell-based, human; settings: read-out: IC50 A2780 (ovarian), 72 hours incubation
MDA-MB-231 cells [3] = settings: MDA-MB-231 TNBC cell line, oxaliplatin treatment alone; cited from earlier work
MDA-MB-231 cell line = assay type: cell-based, human; settings: IC20 concentration, 24 h
MDA-MB-231 cells [4] = assay: Annexin V / propidium iodide apoptosis assay by flow cytometry; assay type: cell-based, human; settings: 72 h incubation with IC50, MDA-MB-231
A549 = assay: Presto Blue cell viability assay, A549; assay type: cell-based, human; settings: read-out: IC50 A549 (lung), 72 hours incubation
MDA-MB-157 cells [5] = assay: PrestoBlue cell viability, MDA-MB-157 2D monolayer; assay type: cell-based; settings: read-out: IC50 2D MDA-MB-157; 72 hours incubation, Presto Blue
[6] = tested on: human umbilical vein endothelial cells (HUVEC); assay: Endothelial tube formation assay; assay type: cell-based; settings: IC10 concentration, 16 h

Structure (SMILES)	inhibition of TrxR activity ([1]; 1 μM of metal compound, 72 h, MDA-MB-231 cells)	inhibition [1]	apoptosis (MDA-MB-468 cell line)	IC50 (MDA-MB-157 cells [2])	plasmid pBR322 band mobility (metal-DNA binding) (plasmid pBR322 DNA)	IC50 (SKOV-3)	IC50 (T24)	IC50 (MDA-MB-231)	IC50 (IMR90)	IC50 (Caki-1)	IC50 (A2780)	increase in apoptosis (MDA-MB-231 cells [3])	inhibition of migration (wound-healing) (MDA-MB-231 cell line)	increase of early apoptosis (MDA-MB-231 cells [4])	IC50 (A549)	IC50 (MDA-MB-157 cells [5])	disruption of tube length (TL) [6]	disruption of tube nodes (TN) [6]
CC(=O)OC[C@H]1O[C@@H]([S-])[C@H](OC(C)=O)[C@@H](OC(C)=O)[C@@H]1OC(C)=O.CCP(CC)CC.[Au+] [Auranofin]	100%	100%																
N.N.O=C([O-])C1(C(=O)[O-])CCC1.[Pt+2] [Carboplatin]			ca. 60%															
N.N.[Cl][Pt][Cl] [cisplatin]		26.4%		21.6 µM	displayed bands for expected DNA-drug interactions	3.84 ± 0.39 µM	2.86 ± 0.36 µM	7.46 ± 0.62 µM	6.21 ± 0.08 µM	3.21 ± 0.88 µM	1.4 ± 0.31 µM							
O=C1[O][Pt]2([NH][C@@H]3CCCC[C@H]3[NH]2)[O]C1=O [oxaliplatin]		29.7%			displayed bands for expected DNA-drug interactions	42.6 ± 3.6 µM	> 100 µM	10.1 ± 0.89 µM	29.8 ± 1.3 µM	8.21 ± 0.07 µM	1.82 ± 0.02 µM	30%	20%	30%	15.8 µM	26.6 ± 1.7 µM	8%	14%
N.N.[Cl-].[Cl-].[OH-].[OH-].[Pt+4] [oxo-cisplatin, [Pt(NH3)2Cl2(OH)2]]		66%			did not change	38.6 ± 4.4 µM	69.9 ± 4.9 µM	52.02 ± 0.08 µM	53.5 ± 4 µM	33.1 ± 2.9 µM	2.7 ± 0.4 µM				67.8 µM			
